These results are taken from publication PMC8011931, “Identification, Structure–Activity Relationship, and Biological Characterization of 2,3,4,5-Tetrahydro-1H-pyrido[4,3-b]indoles as a Novel Class of CFTR Potentiators” (Journal of Medicinal Chemistry, 2020).

One assay deals with T1, G551D-CFTR (Homo sapiens, UniProt P13569, G551D).
T1 construct: expressed in transfected cells
The assay can be described thus: HS-YFP-based assay on G551D-CFTR FRT cells. The class given is cell-based. As for the experimental part: The primary hits were confirmed by testing them at different concentrations, in order to extrapolate the dose–response relationship. First, we focused on the F508del mutant. The compounds were tested in the low micromolar range, in the presence of forskolin (10 μM), on F508del-CFTR FRT cells following rescue of the trafficking defect by low-temperature incubation, as done for the primary screening. The most interesting hits were subsequently tested for their ability to overcome the more severe gating defect of pure class III mutant using FRT cells stably expressing G551D-CFTR (Figure 3B).
A small set of selected potentiators with good efficacy and potency on F508del-CFTR FRT cells (Figure 6A) was also tested at three concentrations on G551D-CFTR FRT cells (Figure 6B).
FRT cells stably expressing mutant F508del-CFTR or G551D-CFTR and the halide-sensitive yellow fluorescent protein (HS-YFP) YFP-H148Q/I152L and CFBE41o-cells stably expressing F508del-CFTR and HS-YFP were generated as previously described.[21],[57] FRT cells were cultured using the Coon’s modification of Ham’s F12 medium, while CFBE41o-cells were cultured in the modified Eagle’s medium. Media were supplemented with 10% fetal calf serum, 2 mM L-glutamine, 100 U/mL of penicillin, and […] of streptomycin. […]
(§1) Prior assay, cells were washed with phosphate-buffered saline (PBS) containing (in mM) 137 NaCl, 2.7 KCl, 8.1 Na2HPO4, 1.5 KH2PO4, 1 CaCl2, and 0.5 MgCl2. […] Cells were then transferred to microplate readers (FluoStar Optima; BMG Labtech, Offenburg, Germany) for CFTR activity determination. The plate readers were equipped with high-quality excitation (HQ500/20X: 500 ± 10 nm) and emission (HQ535/30M: 535 ± 15 nm) filters for YFP (Chroma Technology). The assay consisted of a continuous 14 s fluorescence reading, 2 s before and 12 s after injection of 165 μL of an iodide-containing solution (PBS with Cl^– replaced by I^–; final I^– concentration 100 mM). Data were normalized to the initial background-subtracted fluorescence. […]

For the next assay, the target named is F508del-CFTR (Homo sapiens, UniProt P13569, DEL508-508). The assay can be described thus: 24 h co-incubation with correctors, YFP-based functional assay on F508del-CFTR CFBE41o- cells. The class given is cell-based. Set-up: expressed in transfected cells. To be noted: 39 5 μM with VX-809 1 μM or ARN23765 10 nM. How it is done:
Recent studies have shown that most potentiators have an undesired activity on F508del-CFTR protein processing/trafficking.[39],[40] According to these studies, chronic incubation with potentiators results in decreased activity of VX-809 as a corrector. To test the effect of our potentiators, we incubated F508del-CFTR CFBE41o-cells for 24 h with tetrahydro-γ-carboline 39 (5 μM) together with VX-809 (1 μM) and ARN23765 (10 nM), the picomolar affinity corrector recently reported by our research team.[35] […]
as §1

T1 sequence (P13569 whole entry G551D): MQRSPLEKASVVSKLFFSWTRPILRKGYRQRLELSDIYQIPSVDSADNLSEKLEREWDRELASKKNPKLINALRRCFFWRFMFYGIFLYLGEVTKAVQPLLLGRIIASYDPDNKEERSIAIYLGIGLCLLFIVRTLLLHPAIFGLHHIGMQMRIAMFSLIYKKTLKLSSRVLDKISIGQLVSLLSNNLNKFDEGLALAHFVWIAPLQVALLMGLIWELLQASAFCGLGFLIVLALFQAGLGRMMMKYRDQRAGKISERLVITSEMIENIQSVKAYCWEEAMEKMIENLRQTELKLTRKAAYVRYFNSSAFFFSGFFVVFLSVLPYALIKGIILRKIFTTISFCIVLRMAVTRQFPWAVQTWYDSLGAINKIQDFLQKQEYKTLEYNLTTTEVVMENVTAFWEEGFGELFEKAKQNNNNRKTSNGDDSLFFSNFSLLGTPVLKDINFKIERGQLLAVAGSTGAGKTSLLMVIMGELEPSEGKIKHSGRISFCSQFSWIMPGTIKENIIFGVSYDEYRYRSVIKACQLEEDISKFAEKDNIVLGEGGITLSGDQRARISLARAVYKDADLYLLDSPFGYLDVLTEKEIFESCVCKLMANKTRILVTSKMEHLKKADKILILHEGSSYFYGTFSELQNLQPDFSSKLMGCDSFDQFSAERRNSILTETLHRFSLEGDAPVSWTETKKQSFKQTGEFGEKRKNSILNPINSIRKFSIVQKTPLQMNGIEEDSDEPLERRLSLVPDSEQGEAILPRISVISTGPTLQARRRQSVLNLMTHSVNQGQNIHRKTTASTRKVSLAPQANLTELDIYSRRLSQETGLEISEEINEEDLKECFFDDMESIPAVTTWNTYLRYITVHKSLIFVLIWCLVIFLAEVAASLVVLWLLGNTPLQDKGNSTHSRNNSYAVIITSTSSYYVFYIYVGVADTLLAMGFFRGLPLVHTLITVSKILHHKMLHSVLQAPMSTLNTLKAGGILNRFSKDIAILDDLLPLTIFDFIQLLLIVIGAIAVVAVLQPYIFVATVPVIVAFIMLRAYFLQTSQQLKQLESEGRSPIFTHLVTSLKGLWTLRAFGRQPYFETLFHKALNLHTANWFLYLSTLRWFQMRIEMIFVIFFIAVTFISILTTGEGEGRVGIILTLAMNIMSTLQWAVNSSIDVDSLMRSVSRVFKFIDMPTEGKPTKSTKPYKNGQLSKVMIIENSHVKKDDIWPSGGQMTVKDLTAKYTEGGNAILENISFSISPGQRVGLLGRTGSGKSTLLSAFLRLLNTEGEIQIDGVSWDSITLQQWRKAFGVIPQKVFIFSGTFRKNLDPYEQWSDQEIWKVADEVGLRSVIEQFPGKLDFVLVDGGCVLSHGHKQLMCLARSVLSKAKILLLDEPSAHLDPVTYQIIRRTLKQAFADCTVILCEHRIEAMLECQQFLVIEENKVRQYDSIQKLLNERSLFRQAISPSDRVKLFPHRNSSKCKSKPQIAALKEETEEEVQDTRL
Sequence of F508del-CFTR (P13569 with tags, fused parts or gaps DEL508-508): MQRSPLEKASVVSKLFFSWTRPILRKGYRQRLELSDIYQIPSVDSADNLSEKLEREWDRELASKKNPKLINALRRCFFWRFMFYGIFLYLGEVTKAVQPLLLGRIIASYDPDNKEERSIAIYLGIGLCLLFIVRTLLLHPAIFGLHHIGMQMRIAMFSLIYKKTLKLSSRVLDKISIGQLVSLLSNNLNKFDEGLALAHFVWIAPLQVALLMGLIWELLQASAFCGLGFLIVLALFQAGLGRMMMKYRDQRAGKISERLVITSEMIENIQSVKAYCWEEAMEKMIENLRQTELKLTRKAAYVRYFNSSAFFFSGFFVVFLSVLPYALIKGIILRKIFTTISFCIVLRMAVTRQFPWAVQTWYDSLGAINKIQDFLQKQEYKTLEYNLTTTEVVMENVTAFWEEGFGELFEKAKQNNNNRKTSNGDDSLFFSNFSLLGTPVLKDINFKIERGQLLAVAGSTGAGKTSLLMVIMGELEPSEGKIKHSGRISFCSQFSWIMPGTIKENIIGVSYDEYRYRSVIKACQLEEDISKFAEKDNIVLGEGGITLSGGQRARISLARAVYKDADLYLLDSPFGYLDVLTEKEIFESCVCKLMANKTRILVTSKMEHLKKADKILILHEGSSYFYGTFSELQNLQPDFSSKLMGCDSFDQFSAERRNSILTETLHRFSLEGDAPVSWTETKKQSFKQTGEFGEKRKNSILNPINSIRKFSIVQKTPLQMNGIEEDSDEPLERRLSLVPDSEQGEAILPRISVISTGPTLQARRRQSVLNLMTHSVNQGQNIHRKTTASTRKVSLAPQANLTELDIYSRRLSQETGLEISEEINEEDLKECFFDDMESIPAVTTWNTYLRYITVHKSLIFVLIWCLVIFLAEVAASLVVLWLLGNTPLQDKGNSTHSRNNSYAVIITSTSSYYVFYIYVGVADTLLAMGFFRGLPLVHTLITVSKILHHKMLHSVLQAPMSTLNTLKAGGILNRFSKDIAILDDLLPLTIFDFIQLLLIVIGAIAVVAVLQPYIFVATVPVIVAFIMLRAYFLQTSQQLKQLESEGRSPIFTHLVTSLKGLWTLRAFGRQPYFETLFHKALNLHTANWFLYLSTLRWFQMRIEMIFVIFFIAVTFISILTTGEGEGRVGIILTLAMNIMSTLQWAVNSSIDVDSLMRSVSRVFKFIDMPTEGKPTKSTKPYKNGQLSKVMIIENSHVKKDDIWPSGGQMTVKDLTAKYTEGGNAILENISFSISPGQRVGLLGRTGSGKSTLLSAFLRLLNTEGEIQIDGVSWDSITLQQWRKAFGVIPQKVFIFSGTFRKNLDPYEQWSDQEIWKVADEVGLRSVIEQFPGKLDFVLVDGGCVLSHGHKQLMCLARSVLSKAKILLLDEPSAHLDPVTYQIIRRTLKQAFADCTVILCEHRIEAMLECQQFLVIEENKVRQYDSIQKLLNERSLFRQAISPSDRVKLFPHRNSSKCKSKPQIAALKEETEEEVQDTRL

Turning to `Cc1ccc(F)c2[nH]c3c(c12)CN(C(=O)c1cc(C(F)(F)F)[nH]n1)[C@H](C)C3` [Compound 39, (R)-(6-Fluoro-3,9-dimethyl-1,3,4,5-tetrahydro-2H-pyrido[4,3-b]indol-2-yl)-(5-(trifluoromethyl)-1H-pyrazol-3-yl)methanone], the “activity compared to VX-770 on G551D-CFTR FRT cells” value on G551D-CFTR (at 0.56 μM) is on record as “decrease in activity”; on G551D-CFTR (at the highest concentrations (20–3.3 μM)), “comparable pattern of activity”. For the same compound, the “potency ranking on G551D-CFTR FRT cells” value on G551D-CFTR (tested at three concentrations, Figure 6B) was “the most potent one”. Also, the “effect on rescue efficacy of VX-809 or ARN23765” value at F508del-CFTR was “did not affect the rescue efficacy”.
